Laboratory results published in EPA's ToxValDB 9.5 (doi:10.2903/j.efsa.2010.1722).
Converted amounts (≈) assume the structure as drawn.

How the values were obtained:
Daphnia magna = conditions: chronic/long-term; duration: 21 days; reproduction
Mus musculus = conditions: acute; oral; mortality
Bibionidae = conditions: chronic/long-term; duration: 21 days; other
Tagia sp. = conditions: acute; duration: 14 days; mortality
Oncorhynchus mykiss = conditions: chronic/long-term; duration: 28 days; growth
Apis mellifera = conditions: acute, mortality
Aphidius matricariae [1] = conditions: not reported; reproduction
Canidae = conditions: oral, Dog Other
Colinus virginianus = conditions: reproduction developmental
Anas platyrhynchos = conditions: oral, mortality
Lepomis macrochirus = conditions: acute; duration: 96 hours; mortality
Aphidius matricariae [2] = experiment: LR50; higher = less toxic; conditions: not reported; mortality

C[C@H]1[C@H](c2ccc(Cl)cc2)SC(=O)N1C(=O)NC1CCCCC1 [Hexythiazox]
NOEC (Daphnia magna): 0.0061 mg/L
LD50 (Mus musculus): > 5000 mg/kg
NOEC (Bibionidae): 1.7 mg/L
LD50 (Rattus norvegicus; acute, oral, mortality): > 5000 mg/kg
NOEL (Rattus norvegicus; chronic): 23.5 mg/kg-day
NOAEL (Rattus norvegicus; chronic, duration: 2 years, clinical chemistry): 3.2 mg/kg-day
LC50 (Tagia sp.): > 105 mg/kg
NOEC (Oncorhynchus mykiss): 0.04 mg/L
LD50 (Apis mellifera; dermal): > 200 µg/piece
LD50 (Apis mellifera; duration: 48 hours, oral, unspecified): > 112 µg/piece
LEL (Aphidius matricariae [1]): 158 g/ha
LD50 (Canidae; acute, mortality): > 5000 mg/kg
NOAEL (Canidae; chronic, duration: 1 years, histopathology: nonneoplastic): 2.87 mg/kg-day
NOEC (Colinus virginianus): 100 mg/kg-day
LD50 (Anas platyrhynchos; acute, unspecified): > 2000 mg/kg
LC50 (Anas platyrhynchos; short-term, feed): > 523 mg/kg-day
LC50 (Lepomis macrochirus): 3.2 µg/mL (≈ 9.07 µM)
LR50 (Aphidius matricariae [2]): > 158 g/ha
